The term inhibition denotes the percentage by which the read-out fell short of the control.

The target in the assay is T1, Recombinant human GR (Homo sapiens, UniProt P04150).
T1 construct: purchased Invitrogen P2816
T1 sequence (P04150 1-777): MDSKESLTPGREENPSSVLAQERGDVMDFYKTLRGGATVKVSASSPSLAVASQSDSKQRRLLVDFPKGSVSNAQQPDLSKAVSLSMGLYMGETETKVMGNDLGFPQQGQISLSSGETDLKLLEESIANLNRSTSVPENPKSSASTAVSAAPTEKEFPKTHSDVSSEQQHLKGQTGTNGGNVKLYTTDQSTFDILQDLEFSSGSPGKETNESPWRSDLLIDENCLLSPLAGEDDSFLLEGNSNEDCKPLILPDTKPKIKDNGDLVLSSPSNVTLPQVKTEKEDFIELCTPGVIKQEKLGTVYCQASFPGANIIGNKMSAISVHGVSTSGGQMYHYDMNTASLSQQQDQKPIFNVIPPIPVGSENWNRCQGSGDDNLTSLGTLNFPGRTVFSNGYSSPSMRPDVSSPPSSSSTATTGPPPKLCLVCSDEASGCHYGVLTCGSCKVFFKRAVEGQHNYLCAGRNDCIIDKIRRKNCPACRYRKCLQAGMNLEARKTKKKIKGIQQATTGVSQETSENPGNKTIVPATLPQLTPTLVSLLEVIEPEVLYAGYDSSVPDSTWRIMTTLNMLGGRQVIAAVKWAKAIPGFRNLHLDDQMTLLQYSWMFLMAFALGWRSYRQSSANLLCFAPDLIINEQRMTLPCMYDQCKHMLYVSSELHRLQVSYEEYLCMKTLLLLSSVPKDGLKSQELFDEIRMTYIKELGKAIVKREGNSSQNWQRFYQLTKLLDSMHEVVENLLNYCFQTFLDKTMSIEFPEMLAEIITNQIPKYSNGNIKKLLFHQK
The assay can be described thus: Evaluation test for binding activity to glucocorticoid receptor: receptor competitor assay by fluorescence polarization (Invitrogen GR competitor assay kit, cat No. P2816). To be noted: 20 μM test compound solution, 10 μL per well plus 5 μL 4×GS1 and 5 μL 4×GR solution; room temperature 2 to 4 hours; a ratio of 100% or more is indicated by 100%. As to the method:
A detailed explanation of this matter will be described in the section of “Pharmacological Test” in Examples described below. In order to find the usefulness of the present compound as a pharmaceutical, a glucocorticoid receptor competitor assay was carried out by a fluorescence polarization method by using a glucocorticoid receptor competitor assay kit (manufactured by Invitrogen, cat No. P2816) to study the glucocorticoid receptor binding activity of the present compound.
1. Evaluation Test for Binding Activity to Glucocorticoid Receptor (hereinafter referred to as “GR”)
In order to evaluate a binding activity to GR, a receptor competitor assay was carried out by a fluorescence polarization method. In the assay, a GR competitor assay kit (manufactured by Invitrogen, cat No. P2816) was used, and a procedure was carried out according to the protocol attached to the kit. Hereinafter, the specific method will be described.
(Preparation of Reagents)
GR screening buffer: A buffer containing 10 mM potassium phosphate (pH 7.4), 20 mM sodium molybdate (Na2MoO4), 0.1 mM ethylene diamine tetraacetic acid (EDTA), 5 mM dithiothreitol (DTT), 0.1 mM stabilizing peptide and 2% dimethylsulfoxide was prepared.
4×GS1 solution: Fluormone™ GS1, which is a fluorescent glucocorticoid ligand, was diluted with GR screening buffer, whereby a 4 nM solution was prepared.
4×GR solution: Recombinant human GR was diluted with GR screening buffer, whereby a 16 nM solution was prepared.
(Preparation of Test Compound Solution)
After a test compound was dissolved in dimethylsulfoxide, the resulting solution was diluted with GR screening buffer, whereby a 20 μM test compound solution was prepared.
(Test Method and Measurement Method)
1) The test compound solution was added in an amount of 10 μL into each well of a 384-well plate, and then, 4×GS1 solution and 4×GR solution were added in an amount of 5 μL into each well, respectively.
2) The plate was incubated in a dark place at room temperature for 2 to 4 hours.
3) By using a multimode plate reader, Analyst™ HT (manufactured by LJL Biosystems), fluorescence polarization of each well was measured. As the blank, a well containing GR screening buffer in place of the test compound and 4×GS1 solution was used.
4) The same procedure as that in the above 1) to 3) was carried out except that GR screening buffer was used in place of the test compound solution, and the obtained result was taken as the negative control.
5) The same procedure as that in the above 1) to 3) was carried out except that 2 mM dexamethasone was used in place of the test compound solution, and the obtained result was taken as the positive control.
(Calculation Equation of GR Binding Ratio)
A GR binding ratio (%) was calculated from the following equation. GR binding ratio(%)=100×[1−(fluorescence polarization of test compound solution−fluorescence polarization of positive control solution)/(fluorescence polarization of negative control solution−fluorescence polarization of positive control solution)] (Test Results and Discussion)
A general note: Fluorescence polarisation rises when a labelled molecule tumbles more slowly, as on binding a larger partner.
For `COc1cc(OC(=O)c2ccoc2)ccc1-c1ccc2c(c1CNc1cc(F)ccc1C)C(C)=CC(C)(C)N2` [Compound 1-33, 5-(5-Fluoro-2-methylphenylaminomethyl)-6-[4-(furan-3-ylcarbonyloxy)-2-methoxyphenyl]-2,2,4-trimethyl-1,2-dihydroquinoline], the inhibition at 20 µM (stock) was 100%.

Consider `COc1ccccc1NCc1c(-c2ccc(OC(=O)c3ccc(F)cc3)cc2OC)ccc2c1C(C)=CC(C)(C)N2` [Compound 1-23, 6-[4-(4-Fluorobenzoyloxy)-2-methoxyphenyl]-5-(2-methoxyphenylaminomethyl)-2,2,4-trimethyl-1,2-dihydroquinoline], for which the inhibition at 20 µM (stock) came to 86%.

Turning to `COc1cc(OC(=O)c2cccnc2)ccc1-c1ccc2c(c1CNc1cc(F)ccc1C)C(C)=CC(C)(C)N2` [Compound 1-16, 5-(5-Fluoro-2-methylphenylaminomethyl)-6-[2-methoxy-4-(pyridin-3-ylcarbonyloxy)phenyl]-2,2,4-trimethyl-1,2-dihydroquinoline], the inhibition at 20 µM (stock) was 100%.
